Experiment: xn = mol fraction of the nth substance listed
Settings: 101 kPa

COCCn1cc[n+](C)c1.N#C[S-] + CC1COC(=O)O1
Settings | electrical conductivity [S/m] | viscosity [mPa·s]
288.15 K, x1 = 0.1022 | 0.963 | 4.19
288.15 K, x1 = 0.2001 | 1.05 | 5.1
288.15 K, x1 = 0.3021 | 0.967 | 7.1
288.15 K, x1 = 0.3996 | 0.843 | 11
288.15 K, x1 = 0.5012 | 0.717 | 15.9
288.15 K, x1 = 0.6015 | 0.586 | 22.3
288.15 K, x1 = 0.7032 | 0.471 | 34.5
288.15 K, x1 = 0.8004 | 0.381 | 50
288.15 K, x1 = 0.9002 | 0.286 | 68
288.15 K, x1 = 1 | 0.223 | 86
293.15 K, x1 = 0.1022 | 1.07 | 3.54
293.15 K, x1 = 0.2001 | 1.23 | 4.31
293.15 K, x1 = 0.3021 | 1.12 | 6.1
293.15 K, x1 = 0.3996 | 0.984 | 9.2
293.15 K, x1 = 0.5012 | 0.84 | 12.7
293.15 K, x1 = 0.6015 | 0.709 | 17.5
293.15 K, x1 = 0.7032 | 0.578 | 26.2
293.15 K, x1 = 0.8004 | 0.48 | 37.8
293.15 K, x1 = 0.9002 | 0.382 | 51
293.15 K, x1 = 1 | 0.315 | 67
298.15 K, x1 = 0.1022 | 1.19 | 3.05
298.15 K, x1 = 0.2001 | 1.4 | 3.71
298.15 K, x1 = 0.3021 | 1.3 | 5.3
298.15 K, x1 = 0.3996 | 1.16 | 7.8
298.15 K, x1 = 0.5012 | 1 | 10.4
298.15 K, x1 = 0.6015 | 0.844 | 14
298.15 K, x1 = 0.7032 | 0.714 | 20.3
298.15 K, x1 = 0.8004 | 0.591 | 29
298.15 K, x1 = 0.9002 | 0.492 | 39.7
298.15 K, x1 = 1 | 0.41 | 53
303.15 K, x1 = 0.1022 | 1.31 | 2.67
303.15 K, x1 = 0.2001 | 1.59 | 3.27
303.15 K, x1 = 0.3021 | 1.49 | 4.67
303.15 K, x1 = 0.3996 | 1.33 | 6.6
303.15 K, x1 = 0.5012 | 1.16 | 8.6
303.15 K, x1 = 0.6015 | 1.01 | 11.3
303.15 K, x1 = 0.7032 | 0.849 | 16.1
303.15 K, x1 = 0.8004 | 0.717 | 22.8
303.15 K, x1 = 0.9002 | 0.602 | 31.3
303.15 K, x1 = 1 | 0.52 | 42.1
308.15 K, x1 = 0.1022 | 1.44 | 2.38
308.15 K, x1 = 0.2001 | 1.79 | 2.91
308.15 K, x1 = 0.3021 | 1.69 | 4.11
308.15 K, x1 = 0.3996 | 1.53 | 5.7
308.15 K, x1 = 0.5012 | 1.34 | 7.2
308.15 K, x1 = 0.6015 | 1.17 | 9.4
308.15 K, x1 = 0.7032 | 1 | 13
308.15 K, x1 = 0.8004 | 0.867 | 18.2
308.15 K, x1 = 0.9002 | 0.749 | 25
308.15 K, x1 = 1 | 0.653 | 34.4
313.15 K, x1 = 0.1022 | 1.58 | 2.14
313.15 K, x1 = 0.2001 | 2 | 2.59
313.15 K, x1 = 0.3021 | 1.91 | 3.65
313.15 K, x1 = 0.3996 | 1.75 | 4.9
313.15 K, x1 = 0.5012 | 1.53 | 6.2
313.15 K, x1 = 0.6015 | 1.36 | 7.9
313.15 K, x1 = 0.7032 | 1.19 | 10.8
313.15 K, x1 = 0.8004 | 1.02 | 14.8
313.15 K, x1 = 0.9002 | 0.893 | 20.5
313.15 K, x1 = 1 | 0.795 | 28.6
318.15 K, x1 = 0.1022 | 1.72 | 1.94
318.15 K, x1 = 0.2001 | 2.21 | 2.36
318.15 K, x1 = 0.3021 | 2.14 | 3.3
318.15 K, x1 = 0.3996 | 1.97 | 4.28
318.15 K, x1 = 0.5012 | 1.75 | 5.3
318.15 K, x1 = 0.6015 | 1.55 | 6.7
318.15 K, x1 = 0.7032 | 1.36 | 9.1
318.15 K, x1 = 0.8004 | 1.2 | 12.3
318.15 K, x1 = 0.9002 | 1.07 | 17.1
318.15 K, x1 = 1 | 0.954 | 23.7
323.15 K, x1 = 0.1022 | 1.86 | 1.78
323.15 K, x1 = 0.2001 | 2.43 | 2.16
323.15 K, x1 = 0.3021 | 2.37 | 2.97
323.15 K, x1 = 0.3996 | 2.19 | 3.77
323.15 K, x1 = 0.5012 | 1.97 | 4.62
323.15 K, x1 = 0.6015 | 1.78 | 5.8
323.15 K, x1 = 0.7032 | 1.57 | 7.7
323.15 K, x1 = 0.8004 | 1.4 | 10.3
323.15 K, x1 = 0.9002 | 1.24 | 14.3
323.15 K, x1 = 1 | 1.12 | 20
328.15 K, x1 = 0.1022 | 2.02 | 1.65
328.15 K, x1 = 0.2001 | 2.67 | 1.99
328.15 K, x1 = 0.3021 | 2.62 | 2.68
328.15 K, x1 = 0.3996 | 2.43 | 3.33
328.15 K, x1 = 0.5012 | 2.21 | 4.05
328.15 K, x1 = 0.6015 | 1.99 | 5
328.15 K, x1 = 0.7032 | 1.78 | 6.6
328.15 K, x1 = 0.8004 | 1.6 | 8.8
328.15 K, x1 = 0.9002 | 1.45 | 12.1
328.15 K, x1 = 1 | 1.32 | 17.2
333.15 K, x1 = 0.1022 | 2.17 | 1.54
333.15 K, x1 = 0.2001 | 2.9 | 1.85
333.15 K, x1 = 0.3021 | 2.88 | 2.42
333.15 K, x1 = 0.3996 | 2.68 | 3
333.15 K, x1 = 0.5012 | 2.45 | 3.57
333.15 K, x1 = 0.6015 | 2.24 | 4.38
333.15 K, x1 = 0.7032 | 2.02 | 5.8
333.15 K, x1 = 0.8004 | 1.83 | 7.5
333.15 K, x1 = 0.9002 | 1.65 | 10.4
333.15 K, x1 = 1 | 1.51 | 14.8
